# Measured values published in PubChem BioAssay (NCI).
#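 A five-concentration, 48-hour dose response in 96-well plates underlies each endpoint, interpolated linearly between surrounding concentrations. TGI marks complete inhibition of growth.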
# What was measured:
# Assay in all cases: NCI-60 cell line screen, 48 h
# 786-0 renal = system: 786-0 renal
# A498 renal = system: A498 renal
# A549 NSCLC = system: A549 NSCLC
# ACHN renal = system: ACHN renal
# BT-549 breast = system: BT-549 breast
# CAKI-1 renal = system: CAKI-1 renal
# CCRF-CEM leukemia = system: CCRF-CEM leukemia
# COLO 205 colon = system: COLO 205 colon
# DU-145 prostate = system: DU-145 prostate
# EKVX NSCLC = system: EKVX NSCLC
# HCC-2998 colon = system: HCC-2998 colon
# HCT-116 colon = system: HCT-116 colon
# HCT-15 colon = system: HCT-15 colon
# HL-60(TB) leukemia = system: HL-60(TB) leukemia
# HOP-62 NSCLC = system: HOP-62 NSCLC
# HOP-92 NSCLC = system: HOP-92 NSCLC
# HS 578T breast = system: HS 578T breast
# HT29 colon = system: HT29 colon
# IGROV1 ovarian = system: IGROV1 ovarian
# K-562 leukemia = system: K-562 leukemia
# KM12 colon = system: KM12 colon
# LOX IMVI melanoma = system: LOX IMVI melanoma
# M14 melanoma = system: M14 melanoma
# MALME-3M melanoma = system: MALME-3M melanoma
# MCF7 breast = system: MCF7 breast
# MDA-MB-231 breast = system: MDA-MB-231 breast
# MDA-MB-435 = system: MDA-MB-435
# MDA-N = system: MDA-N
# MOLT-4 leukemia = system: MOLT-4 leukemia
# NCI-H23 lung = system: NCI-H23 lung
# NCI-H460 lung = system: NCI-H460 lung
# NCI-H522 lung = system: NCI-H522 lung
# NCI/ADR-RES ovarian = system: NCI/ADR-RES ovarian
# OVCAR-3 ovarian = system: OVCAR-3 ovarian
# OVCAR-5 ovarian = system: OVCAR-5 ovarian
# OVCAR-8 ovarian = system: OVCAR-8 ovarian
# PC-3 prostate = system: PC-3 prostate
# RPMI-8226 leukemia = system: RPMI-8226 leukemia
# RXF 393 renal = system: RXF 393 renal
# SF-268 CNS = system: SF-268 CNS
# SF-295 CNS = system: SF-295 CNS
# SF-539 CNS = system: SF-539 CNS
# SK-MEL-2 melanoma = system: SK-MEL-2 melanoma
# SK-MEL-28 melanoma = system: SK-MEL-28 melanoma
# SK-MEL-5 melanoma = system: SK-MEL-5 melanoma
# SK-OV-3 ovarian = system: SK-OV-3 ovarian
# SN12C renal = system: SN12C renal
# SNB-19 CNS = system: SNB-19 CNS
# SNB-75 CNS = system: SNB-75 CNS
# SR leukemia = system: SR leukemia
# SW-620 colon = system: SW-620 colon
# TK-10 renal = system: TK-10 renal
# U251 CNS = system: U251 CNS
# UACC-257 melanoma = system: UACC-257 melanoma
# UACC-62 melanoma = system: UACC-62 melanoma
# UO-31 renal = system: UO-31 renal
smiles,measurement,setting,value
O=[N+]([O-])c1ccc2sc(C=Nc3ccc(O)cc3)cc2c1,TGI,786-0 renal,40.4 µM
same,TGI,A498 renal,> 100 µM
same,TGI,A549 NSCLC,> 100 µM
same,TGI,ACHN renal,> 100 µM
same,TGI,BT-549 breast,> 100 µM
same,TGI,CAKI-1 renal,43.5 µM
same,TGI,CCRF-CEM leukemia,59.6 µM
same,TGI,COLO 205 colon,> 100 µM
same,TGI,DU-145 prostate,> 100 µM
same,TGI,EKVX NSCLC,> 100 µM
same,TGI,HCC-2998 colon,56.6 µM
same,TGI,HCT-116 colon,> 100 µM
same,TGI,HCT-15 colon,> 100 µM
same,TGI,HL-60(TB) leukemia,53.2 µM
same,TGI,HOP-62 NSCLC,> 100 µM
same,TGI,HOP-92 NSCLC,> 100 µM
same,TGI,HS 578T breast,66.4 µM
same,TGI,HT29 colon,> 100 µM
same,TGI,IGROV1 ovarian,> 100 µM
same,TGI,K-562 leukemia,43 µM
same,TGI,KM12 colon,> 100 µM
same,TGI,LOX IMVI melanoma,51.2 µM
same,TGI,M14 melanoma,> 100 µM
same,TGI,MALME-3M melanoma,> 100 µM
same,TGI,MCF7 breast,47.7 µM
same,TGI,MDA-MB-231 breast,44.5 µM
same,TGI,MDA-MB-435,34.3 µM
same,TGI,MDA-N,80.6 µM
same,TGI,MOLT-4 leukemia,44.6 µM
same,TGI,NCI-H23 lung,> 100 µM
same,TGI,NCI-H460 lung,> 100 µM
same,TGI,NCI-H522 lung,> 100 µM
same,TGI,NCI/ADR-RES ovarian,> 100 µM
same,TGI,OVCAR-3 ovarian,28.6 µM
same,TGI,OVCAR-5 ovarian,> 100 µM
same,TGI,OVCAR-8 ovarian,> 100 µM
same,TGI,PC-3 prostate,> 100 µM
same,TGI,RPMI-8226 leukemia,79.7 µM
same,TGI,RXF 393 renal,57.9 µM
same,TGI,SF-268 CNS,> 100 µM
same,TGI,SF-295 CNS,> 100 µM
same,TGI,SF-539 CNS,55.4 µM
same,TGI,SK-MEL-2 melanoma,59 µM
same,TGI,SK-MEL-28 melanoma,> 100 µM
same,TGI,SK-MEL-5 melanoma,68 µM
same,TGI,SK-OV-3 ovarian,> 100 µM
same,TGI,SN12C renal,> 100 µM
same,TGI,SNB-19 CNS,> 100 µM
same,TGI,SNB-75 CNS,49.9 µM
same,TGI,SR leukemia,97 µM
same,TGI,SW-620 colon,43.9 µM
same,TGI,TK-10 renal,> 100 µM
same,TGI,U251 CNS,42.7 µM
same,TGI,UACC-257 melanoma,56.2 µM
same,TGI,UACC-62 melanoma,61.9 µM
same,TGI,UO-31 renal,> 100 µM
